Results as given in patent US10821152B2, “Methods, agents and compositions for treatment of inflammatory conditions” (Betanien Hospital, priority 2014, dated 2020).
Non-standard residues stand in square brackets, D forms with d. Residues, ends and D or L forms follow the SMILES beside them. *: point of attachment. dPhe(4-NHCONH2) = NC(=O)Nc1ccc(C[C@@H](N)C(=O)O)cc1; Dihydroorotyl(S) = O=C1C[C@@H](C(=O)*)NC(=O)N1; dPhe(4-Cl) = N[C@H](Cc1ccc(Cl)cc1)C(=O)O; Phe(4-NH2) = Nc1ccc(C[C@H](N)C(=O)O)cc1; d2Nal = N[C@H](Cc1ccc2ccccc2c1)C(=O)O; Lys(iPr) = CC(C)NCCCC[C@H](N)C(=O)O; d3Pal = N[C@H](Cc1cccnc1)C(=O)O

Assays:
Assay type in all cases: in vivo, human
patient with colitis = test: Treatment of inflammatory bowel disease (fecal calprotectin, partial Mayo score)
Description: • person, diagnosed with colitis • Inflammatory bowel disease, colitis verified on colonic biopsy sample. Patients with inflammatory colitis usually have a higher incidence of autoimmune diseases. This patient also had ankylosing spondylitis. Experimental Treatment • September 2014 received first dose of Degarelix 240 mg sc. • Received Degarelix 80 mg sc approximately every two weeks thereafter. Assessment of Response • The inflammatory bowel diseases (IBD's), Crohn's disease and ulcerative colitis, are chronic relapsing, remitting disorders. The assessment of disease activity presents challenges to clinicians. Fecal biomarkers, such as fecal calprotectin, are a non-invasive method which can be used to aid managing clinicians. Calprotectin is released extracellularly in times of cell stress or damage and can be detected within feces and thus be used as a sensitive marker of intestinal inflammation. […] Fecal calprotectin levels are elevated in patients with both Crohn's disease and ulcerative colitis 1-2. There have been several studies looking at the use of fecal calprotectin to predict or monitor response to treatment. • In a study looking at 11 patients with relapsing IBD, fecal calprotectin was analysed at inclusion and after 8 weeks of treatment. Treatment was individualized medical therapy. A normalized fecal calprotectin concentration at 8 weeks predicted a complete response in 100% of patients,3 corresponding to endoscopic mucosal healing4. It has been shown that in patients with steroid induced clinical remission fecal calprotectin levels can remain elevated5-6. […] A level of <50 mg/kg is considered normal or remission for IBD. • There is no gold standard index in the measurement of colitis disease activity in clinical trials. Due to the invasive nature of endoscopies, the Mayo non-invasive colitis assessment of response score can be used to assess treatment effect of IBD in clinical trials9-11. […] Both the partial Mayo and total Mayo score are used to assess disease activity in clinical trials13. The partial Mayo score also had good discriminatory value between subjects in remission and those with active disease14. A clinical response has been defined as a 3 point or greater change in the partial Mayo score15.

[1] = tested on: patients with risk factors for cardiovascular disease; test: Cardiovascular and metabolic risk factors in patients offered Degarelix
Description: In our patient group who were offered Degarelix, some patients had risk factors for cardiovascular disease, metabolic syndrome, lipidemia or hypoalphalipoproteinemia (low HDL). None of these patients had recently started medications prior to the GnRH antagonist that could explain the changes in blood pressure, HbA1C, fasting glucose or lipids. See Example 1 for patient information.

[2] = tested on: patient with seropositive rheumatoid arthritis; test: Treatment of RA using Degarelix 40 mg weekly
Description: • person with seropositive rheumatoid arthritis with disease duration of 22 years. • Fulfilled ACR 2010 classification criteria for rheumatoid arthritis. Experimental Treatment • Had tried most therapies available (for example: Humira, Remicade, Enbrel, Actemra, several disease modifying anti-rheumatic drugs), previously without effect or intolerable side effects. • Offered experimental GnRH antagonist therapy, Degarelix 40 mg every week with 240 mg loading dose at baseline. Assessment of Response • Disease activity score (DAS) reduction from 7.3 to 6.7 at 2 weeks. • A DAS reduction of 0.6 units is defined as a clinical response to treatment (1). • Their ESR has decreased from 62 mm to 38 mm, with a decrease in their CRP from 87 mg/L to 67 mg/L.

**Q.** Which results are given for `CC(=O)N[C@H](Cc1ccc2ccccc2c1)C(=O)N[C@H](Cc1ccc(Cl)cc1)C(=O)N[C@H](Cc1cccnc1)C(=O)N[C@@H](CO)C(=O)N[C@@H](Cc1ccc(NC(=O)[C@@H]2CC(=O)NC(=O)N2)cc1)C(=O)N[C@H](Cc1ccc(NC(N)=O)cc1)C(=O)N[C@@H](CC(C)C)C(=O)N[C@@H](CCCCNC(C)C)C(=O)N1CCC[C@H]1C(=O)N[C@H](C)C(N)=O` [Degarelix] (Ac-[d2Nal][dPhe(4-Cl)][d3Pal]S[Phe(4-NH2)](Dihydroorotyl(S))[dPhe(4-NHCONH2)]L[Lys(iPr)]P[dA]-NH2)?
**A.** Fecal calprotectin (<50 normal) (patient with colitis; 02.10.14): 48, normal mg/kg; Fecal calprotectin (<50 normal) (patient with colitis; 10.01.15): 32, normal mg/kg; Fecal calprotectin (<50 normal) (patient with colitis; 24.09.14 (started 10 Sep. 2014)): 79, high mg/kg; partial Mayo score (patient with colitis; at 12 weeks): 0; partial Mayo score (patient with colitis; baseline): 3; fasting glucose ([1]; Patient 1, October 2014): 6.3 mmol/L; fasting glucose ([1]; Patient 1, September 2014): 6.6 mmol/L; metabolic syndrome criteria ([1]; Patient 1, after degarelix treatment): no longer fulfills the criteria for metabolic syndrome; HBA1c (4.3-6.1%) ([1]; Patient 1, at 8 months): 5.7%; HBA1c (4.3-6.1%) ([1]; Patient 1, baseline): 6.4%; blood pressure ([1]; Patient 1, baseline): 151/90; HBA1c (4.3-6.1%) ([1]; Patient 1, by 2 weeks): 6.1%; fasting glucose (4.0-6.0) ([1]; Patient 4, 3 months after starting Degarelix): 6.6 mmol/L; fasting glucose (4.0-6.0) ([1]; Patient 4, April 2014, before Degarelix): 8.9 mmol/L; fasting glucose (4.0-6.0) ([1]; Patient 4, December 2013, before Degarelix): 8.5 mmol/L; HBA1c (4.3-6.1%) ([1]; Patient 4, baseline): 6.9%; HBA1c (4.3-6.1%) ([1]; Patient 4, by 1 month): 6.6%; HBA1c (4.3-6.1%) ([1]; Patient 4, by 2 months): 6.4%; HBA1c (4.3-6.1%) ([1]; Patient 4, by 4 months): 6.2%; fasting glucose (4.0-6.0) ([1]; Patient 4, by 4 months): 6.0 mmol/L; HBA1c (4.3-6.1%) ([1]; Patient 4, by 12 months): 5.9%; HDL (1.0-2.7 mmol/L) ([1]; Patient 7, baseline September 2014): 0.68 mmol/L; HDL (1.0-2.7 mmol/L) ([1]; Patient 7, by 1 week): 0.73 mmol/L; HDL (1.0-2.7 mmol/L) ([1]; Patient 7, by 2 weeks): 0.75 mmol/L; HDL (1.0-2.7 mmol/L) ([1]; Patient 7, by 3 weeks): 1.13 mmo/L; Disease activity score (DAS) ([2]; at 2 weeks, 240 mg loading, 40 mg weekly): 6.7; CRP ([2]; baseline): 87 mg/L; Disease activity score (DAS) ([2]; baseline): 7.3; ESR ([2]; baseline): 62 mm; CRP ([2]; on Degarelix 40 mg weekly): 67 mg/L; ESR ([2]; on Degarelix 40 mg weekly): 38 mm
